Reference: patent publication US20250367268A1, “Compositions and Methods for Treating Internal Bleeding and Hemorrhage” (priority 2024, published 2025)

What was measured:
[1] = test system: Trauma and 27 ml/kg hemorrhagic shock; experiment: Second albumin study: trauma and 27 ml/kg hemorrhagic shock model, albumin bolus then crystalloid as needed; type: in vivo
Experimental: Rats were acclimated for at least 5 days after arrival at the facility prior to experimental procedures. Trauma and 27 ml/kg hemorrhagic shock models in the art were used with some modifications: 1) an extended observation period considered entirely pre-hospital to represent prolonged field care and 2) a reduction in isoflurane during hemorrhage, intended to reduce the mortality prior to resuscitation (FIG. 28). Rats were assigned into 4 treatment groups: Crystalloid (N=15), OA-saturated BSA (OA-BSA; N=17), CA-saturated BSA (CA-BSA; N=17), and pharmaceutical HSA (N=17). Adult, male Sprague Dawley rats (Charles River Laboratories, Houston, TX) between 325 and 400 g in body weight (BW) were induced with isoflurane (4%) in medical air, then maintained at 2-3% throughout instrumentation. Core temperature was maintained (36-37° C.) using a heating pad and monitored with a rectal probe (Physitemp, Clifton, NJ). The carotid artery was cannulated for continuous pressure recording, the left femoral artery for controlled hemorrhage, and the left femoral vein for blood sampling and resuscitation fluid administration. PE50 tubing for vessel cannulations was soaked overnight in heparin to reduce clotting.
Laparotomy was performed to induce trauma, then the opening was covered with plastic wrap. […]

hemorrhagic shock = type: in vivo, rats
Experimental: Two studies of resuscitation by albumin after hemorrhage were performed. In the first study, resuscitation by a crystalloid (control) was compared to resuscitation with either a bolus of bovine serum albumin (BSA) saturated with oleic acid (OA-BSA) or a bolus of NEFA-free albumin, followed by crystalloid, as needed. As commercially available pharmaceutical grade albumin is human albumin (HSA) that is nearly saturated with caprylic acid, instead of oleic acid, in the second study OA-BSA, caprylic acid-saturated BSA (CA-BSA), and pharmaceutical grade human serum albumin (HSA) were compared. A crystalloid-only group (“Crystalloid Only Group”) was also run as a control. […] There were no significant differences among the Albumin Groups (all containing high concentrations of NEFA) in any of the other measurements.
Laparotomy was performed to induce trauma, then the opening was covered with plastic wrap. The right hind leg was elevated and an inflatable tourniquet (digit cuff, Hokanson, Bellevue, WA) was positioned on the leg, but not yet inflated. For the second albumin study, isoflurane was lowered to 1% immediately before start of hemorrhage. Rats were hemorrhaged (2 ml/min/kg BW) by syringe pump until MAP dropped to 35 mmHg (designated as time T=0 h). At that time, the tourniquet was inflated using a Portable Tourniquet System (Delfi Medical, Vancouver, Canada), representing first aid. The controlled hemorrhage rate was then reduced to 0.6 ml/min/kg to simulate hemorrhage not controlled by tourniquet (e.g., from another injury site or imperfect application). Blood pressure was maintained at 33-38 mmHg by adjusting the draw rate (0.2-0.8 ml/min/kg), until the total hemorrhage reached 27 ml/kg. […] The bolus size was chosen as the estimated dosage needed to replace the albumin lost to hemorrhage. […] At T=2 h, representing the maximum recommended time before conversion to hemostatic dressing 16, the tourniquet was deflated and removed. Surviving animals were euthanized at T=4 h by intravenous administration of 0.2 ml of sodium pentobarbital euthanasia solution (Beuthanasia, Merck Animal Health, Madison, NJ), while still under anesthesia. After euthanasia, the right lung was harvested for moisture analysis (MA160, Sartorious, Bohemia, NY) and the left lung for collection of BALF (3X bronchoalveolar lavage fluid with 3 ml saline). Following the final lavage, the left lung was infused with formalin fixative for histological analysis. The liver, heart, spleen, kidney, and jejunum were also collected and fixed in formalin for histological analysis.

Substance	loss of protein from the circulation (plasma/total protein T2 to T4) ([1]; second study, FIG. 2 and FIG. 3)	amount of resuscitation fluid required to keep pressure at a sufficient level (hemorrhagic shock; first study)	effect on pressure relative to OA-BSA and Crystalloid Only Group (hemorrhagic shock; first study)	vascular leakage (hemorrhagic shock; rat, in vivo)	loss of protein from the circulation (plasma/total protein T2 to T4) ([1]; rat, in vivo)	significantly reduced mortality compared to the Crystalloid Only Group (hemorrhagic shock; first study)	mortality (hemorrhagic shock; first study, FIG. 4)
CA-BSA: caprylic acid-saturated BSA	significant drop	–	–	–	–	–	–
NEFA-free albumin: albumin preparation with a NEFA content of 0-0.14% by weight of albumin; bovine serum albumin in the experiments	–	46 mL/kg	intermediate between the other two groups	did not cause vascular leakage	–	–	–
OA-BSA: bovine serum albumin (BSA) saturated with oleic acid, 25% bolus	–	6 mL/kg	–	–	significant drop	significantly reduced mortality	8%
